Literature values, collected in patent US20040191926A1 (priority 2001, published 2004).
Positions count from the first letter of the chain named. Like-named read-outs stand apart in the source and are kept apart here. Where no end group is shown, it is not given here. [ ]: non-standard residue; d: D form. F2Pmp = N[C@@H](Cc1ccc(C(F)(F)P(=O)(O)O)cc1)C(=O)O

Legend:
[1] = target: T1, PTP1B/C215S (Homo sapiens, UniProt P18031, C215S); conditions: isothermal titration calorimetry, pH 7.0 and 25° C.; cited from earlier work
T1 sequence (P18031 1-435 C215S): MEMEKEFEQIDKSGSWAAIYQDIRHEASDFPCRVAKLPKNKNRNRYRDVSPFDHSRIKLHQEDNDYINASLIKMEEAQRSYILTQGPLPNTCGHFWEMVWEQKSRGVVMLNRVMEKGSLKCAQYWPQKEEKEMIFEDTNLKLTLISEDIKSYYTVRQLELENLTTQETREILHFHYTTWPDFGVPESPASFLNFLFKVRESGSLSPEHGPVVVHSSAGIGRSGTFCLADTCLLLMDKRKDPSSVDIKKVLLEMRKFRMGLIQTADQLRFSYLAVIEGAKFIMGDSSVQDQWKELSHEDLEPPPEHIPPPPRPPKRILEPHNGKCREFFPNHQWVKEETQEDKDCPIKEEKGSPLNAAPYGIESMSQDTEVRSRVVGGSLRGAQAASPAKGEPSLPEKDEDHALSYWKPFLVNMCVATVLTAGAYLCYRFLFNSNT

[2] = target: T2, PTP1B (Homo sapiens, UniProt P18031); conditions: isothermal titration calorimetry, ionic strength of 0.15 M (ref. 33); cited from earlier work
T2 sequence (P18031 1-435): T1 sequence (P18031 1-435 C215S) with S215C

[3] = target: T2, PTP1B; conditions: cited from earlier work
[4] = target: T2, PTP1B; conditions: as PTP1B substrate (ref. 31); cited from earlier work

Ac-DADEpYL-NH2 [pTyr-containing hexapeptide PTP1B substrate]
Kd [1]: 800 ± 100 nM

DADE[F2Pmp]L-NH2
Kd [2]: 240 nM | Ki [3]: 200 nM | potency relative to the same peptide containing phosphonomethyl phenylalanine (Pmp) [3]: over 1000 times | Ki ([3]; enzyme inhibition, ionic strength of 0.15 M (ref. 33)): 250 nM | IC50 ([3]; low ionic strength: pH 6.3, 50 mM Bis-Tris, 2 mM EDTA, 5 mM DTT buffer (ref. 38)): 30 nM | Ki ([3]; low ionic strength: pH 7.3 in 50 mM Hepes, 5 mM DTT and 10 mg/mL BSA buffer (ref. 37)): 26 nM

O=P(O)(O)Oc1ccc(Cc2ccc(OP(=O)(O)O)cc2)cc1
Km [4]: 16 µM | kcat [4]: 6.9 s⁻¹
